What all share (type): in vivo
For one assay, the system named is rice (Oryza sativa). Briefly: Test C flooded paddy test. The following applies: Flood, scale 0 to 100. As to the method:
(§1) At the same time, plants selected from these crop and weed species and also winter barley (Hordeum vulgare), blackgrass (Alopecurus myosuroides), canarygrass (Phalaris minor), chickweed (Stellaria media), downy brome (Bromus tectorum), green foxtail (Setaria viridis), Italian ryegrass (Lolium multiflorum), wheat (Triticum aestivum), wild oat (Avena fatua) and windgrass (Apera spica-venti) were treated with postemergence applications of some of the test chemicals formulated in the same manner. Plants ranged in height from 2 to 18 cm (1- to 4-leaf stage) for postemergence treatments. Plant species in the flooded paddy test consisted of rice (Oryza sativa), umbrella sedge (Cyperus difformis), duck salad (Heteranthera limosa) and barnyardgrass (Echinochloa crus-galli) grown to the 2-leaf stage for testing. Treated plants and controls were maintained in a greenhouse for 12 to 14 days, after which time all species were compared to controls and visually evaluated. Plant response ratings, summarized in Table C, are based on a scale of 0 to 100 where 0 is no effect and 100 is complete control. A dash (-) response means no test result.

The test system of assay [1] is barnyardgrass (Echinochloa crus-galli). Briefly: Test C flooded paddy test. Conditions: Flood. How it is done:
as §1

Assay [2] deals with umbrella sedge (Cyperus difformis). Briefly: Test C flooded paddy test. Conditions: Flood, scale 0 to 100. As to the method: as §1
Assay [3] deals with morningglory (Ipomoea spp.). Briefly: Test A pre/postemergence. The following applies: Ipomoea, 240 h, read-out: Plant response rating, Morningglory; for pest or weed control at 500 g/ha: 500 g ai/ha; for pest or weed control at 2000 g/ha: 2000 g ai/ha. The method in brief: (§2)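 Seeds in loam–sand blend received preemergence directed soil spray and, concurrently, postemergence application (plants 2–10 cm, 1–2-leaf stage) of compound in non-phytotoxic solvent with surfactant. After about ten days in greenhouse, injury rated visually versus untreated controls, 0 (no effect) to 100 (complete control).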

Assay [4] deals with redroot pigweed (Amaranthus retroflexus). Briefly: Test A pre/postemergence. Conditions: Amaranthus retroflexus, 240 h, read-out: Plant response rating, Pigweed; for pest or weed control at 500 g/ha: 500 g ai/ha; for pest or weed control at 2000 g/ha: 2000 g ai/ha. The method in brief:
as §2

Assay [5] deals with velvetleaf (Abutilon theophrasti). The experiment in a line: Test A pre/postemergence. The following applies: Abutilon theophrasti, 240 h, read-out: Plant response rating, Velvetleaf; for pest or weed control at 500 g/ha: 500 g ai/ha; for pest or weed control at 2000 g/ha: 2000 g ai/ha. The method in brief:
as §2

The test system of assay [6] is giant foxtail (Setaria faberi). Briefly: Test A pre/postemergence. The following applies: Setaria faberi, 240 h, read-out: Plant response rating, Foxtail, Giant; for pest or weed control at 500 g/ha: 500 g ai/ha; for pest or weed control at 2000 g/ha: 2000 g ai/ha. The method in brief:
as §2

Setting [7] is: 500 g ai/ha, scale 0 to 100 (0 no effect, 100 complete control).
[8] abbreviates: post-emergence, Postemergence, 0 to 100 scale (0 no effect, 100 complete control).
The mark [9] stands for this setting: pre-emergence, Preemergence, 0 to 100 scale where 0 is no effect and 100 is complete control, approximately ten days.
Setting [10] is: pre-emergence, Preemergence, 0 to 100 scale (0 no effect, 100 complete control).

Like-named read-outs stand apart in the source and are kept apart here.

As for `CCOC(=O)c1nc(-c2ccc(Cl)cc2)nc(N)c1Br` [Compound 37], the “Plant response rating, Rice” value in the assay on rice (Oryza sativa) (62 g ai/ha), with rice (Oryza sativa) (125 g ai/ha), in the assay on rice (Oryza sativa) (250 g ai/ha) and in the assay on rice (Oryza sativa) (500 g ai/ha) was 0 each time. Further, the “Plant response rating, Barnyardgrass” value in assay [1] (62 g ai/ha, scale 0 to 100) was 0; in assay [1] (125 g ai/ha, scale 0 to 100), 0; in assay [1] (250 g ai/ha, scale 0 to 100), 0; in assay [1] (setting [7]), 0. Moreover, the “Plant response rating, Sedge, Umbrella” value in assay [2] (62 g ai/ha) came to 85; in assay [2] (125 g ai/ha), 85; in assay [2] (250 g ai/ha), 90; in assay [2] (500 g ai/ha) it was 95.
Take `Nc1nc(C2CC2)nc(C(=O)OCc2ccccc2)c1Br` [Compound 22, phenylmethyl 6-amino-5-bromo-2-cyclopropyl-4-pyrimidinecarboxylate]: the “Plant response rating, Rice” value came out at 20 in the assay with rice (Oryza sativa) (62 g ai/ha), 20 with rice (Oryza sativa) (125 g ai/ha), 40 with rice (Oryza sativa) (250 g ai/ha) and 60 in the assay with rice (Oryza sativa) (500 g ai/ha). Also, the “Plant response rating, Barnyardgrass” value amounted to 0 in assay [1] (62 g ai/ha, scale 0 to 100); 0 in assay [1] (125 g ai/ha, scale 0 to 100); 40 in assay [1] (250 g ai/ha, scale 0 to 100); 70 in assay [1] (setting [7]). Further, the “Plant response rating, Sedge, Umbrella” value was found to be 0 in assay [2] (62 g ai/ha), 30 in assay [2] (125 g ai/ha), 75 in assay [2] (250 g ai/ha) and 95 in assay [2] (500 g ai/ha).
In the case of `Nc1nc(C2CC2)nc(C=O)c1Br` [Compound 26], the “Plant response rating, Rice” value is given as 0 in the assay with rice (Oryza sativa) (62 g ai/ha), 0 in the assay with rice (Oryza sativa) (125 g ai/ha), 20 in the assay on rice (Oryza sativa) (250 g ai/ha) and 25 with rice (Oryza sativa) (500 g ai/ha). Also, the “Plant response rating, Barnyardgrass” value in assay [1] (62 g ai/ha, scale 0 to 100) was found to be 0; in assay [1] (125 g ai/ha, scale 0 to 100), 0; in assay [1] (250 g ai/ha, scale 0 to 100), 0; in assay [1] (setting [7]), 0. Also, the “Plant response rating, Sedge, Umbrella” value was found to be 0 in assay [2] (62 g ai/ha), 0 in assay [2] (125 g ai/ha), 20 in assay [2] (250 g ai/ha) and 20 in assay [2] (500 g ai/ha).
Take `CCCOC(=O)c1nc(C2CC2)nc(N)c1Br` [Compound 15]: the “Plant response rating, Rice” value turned out to be 0 in the assay with rice (Oryza sativa) (62 g ai/ha), 0 in the assay on rice (Oryza sativa) (125 g ai/ha), 20 in the assay with rice (Oryza sativa) (250 g ai/ha) and 50 in the assay on rice (Oryza sativa) (500 g ai/ha). Also, the “Plant response rating, Barnyardgrass” value in assay [1] (62 g ai/ha, scale 0 to 100) came out at 0; in assay [1] (125 g ai/ha, scale 0 to 100) it was 0; in assay [1] (250 g ai/ha, scale 0 to 100), 25; in assay [1] (setting [7]), 75. Moreover, the “Plant response rating, Sedge, Umbrella” value in assay [2] (62 g ai/ha) is 0; in assay [2] (125 g ai/ha), 0; in assay [2] (250 g ai/ha), 10; in assay [2] (500 g ai/ha), 25.
On to `CCOC(=O)c1nc(C2CC2)nc(N)c1Br` [Compound 1, ethyl 6-amino-5-bromo-2-cyclopropyl-4-pyrimidinecarboxylate], for which the “Plant response rating, Rice” value with rice (Oryza sativa) (62 g ai/ha), with rice (Oryza sativa) (125 g ai/ha), in the assay on rice (Oryza sativa) (250 g ai/ha) and in the assay on rice (Oryza sativa) (500 g ai/ha) was 0 in each case. Moreover, the “Plant response rating, Barnyardgrass” value in assay [1] (62 g ai/ha, scale 0 to 100) stood at 0; in assay [1] (125 g ai/ha, scale 0 to 100) it was 0; in assay [1] (250 g ai/ha, scale 0 to 100), 15; in assay [1] (setting [7]) it was 25. The “Plant response rating, Sedge, Umbrella” value in assay [2] (62 g ai/ha), in assay [2] (250 g ai/ha) and in assay [2] (500 g ai/ha) was 0 in each case. The pest or weed control at 500 g/ha in assay [3] (setting [8]) was 95%; in assay [3] (setting [9]), 85%; in assay [4] (setting [8]) it was 100%; in assay [4] (setting [9]) it was 85%; in assay [5] (setting [8]) it was 95%; in assay [5] (setting [9]) it was 60%. Moreover, the pest or weed control at 500 g/ha was found to be 70% in assay [6] (setting [8]) and 40% in assay [6] (setting [9]). Besides, the pest or weed control at 2000 g/ha was found to be 100% in assay [3] (setting [8]); 100% in assay [3] (setting [10]); 100% in assay [4] (setting [8]); 100% in assay [4] (setting [10]); 85% in assay [5] (setting [8]); 80% in assay [5] (setting [10]). The pest or weed control at 2000 g/ha was 75% in assay [6] (setting [8]) and 85% in assay [6] (setting [10]).
In the case of `CCCCOC(=O)c1nc(C2CC2)nc(N)c1Br` [Compound 16], the “Plant response rating, Rice” value in the assay on rice (Oryza sativa) (62 g ai/ha) is on record as 0; in the assay with rice (Oryza sativa) (125 g ai/ha), 0; with rice (Oryza sativa) (250 g ai/ha) it was 0; in the assay on rice (Oryza sativa) (500 g ai/ha) it was 65. The “Plant response rating, Barnyardgrass” value in assay [1] (62 g ai/ha, scale 0 to 100) is on record as 0; in assay [1] (125 g ai/ha, scale 0 to 100), 0; in assay [1] (250 g ai/ha, scale 0 to 100), 15; in assay [1] (setting [7]), 50. Also, the “Plant response rating, Sedge, Umbrella” value in assay [2] (125 g ai/ha) was determined as 0; in assay [2] (250 g ai/ha) it was 50; in assay [2] (500 g ai/ha) it was 55.
Consider `CNc1nc(C2CC2)nc(C(=O)OC)c1Br` [Compound 5], for which the “Plant response rating, Rice” value with rice (Oryza sativa) (62 g ai/ha), in the assay with rice (Oryza sativa) (125 g ai/ha), in the assay on rice (Oryza sativa) (250 g ai/ha) and in the assay on rice (Oryza sativa) (500 g ai/ha) was 0 each time. Besides, the “Plant response rating, Barnyardgrass” value was 0 in assay [1] (62 g ai/ha, scale 0 to 100); 0 in assay [1] (125 g ai/ha, scale 0 to 100); 0 in assay [1] (250 g ai/ha, scale 0 to 100); 20 in assay [1] (setting [7]). Besides, the “Plant response rating, Sedge, Umbrella” value in assay [2] (62 g ai/ha), in assay [2] (125 g ai/ha), in assay [2] (250 g ai/ha) and in assay [2] (500 g ai/ha) was 0 each time.

These data come from US8802597B2, “Herbicidal pyrimidines” (E I du Pont de Nemours and Company, priority 2003, dated 2014).
